# Values quoted from earlier work in patent US20030003013A1, “Disinfectant composition and method for disinfecting and/or sterilising a dental unit” ([…].p.A., priority 2001, published 2003).
# Tested on: bacteria and spores on a surface / water line of a dental unit
smiles,measurement,setting,value
O=CCCCC=O [glutaraldehyde],contact time to reach the sporicidal level required to achieve sterility,glutaraldehyde,five
same,contact time for high-level disinfection,glutaraldehyde left in contact with a surface before flushing out,twenty to thirty
same,contact time to disinfect a surface,glutaraldehyde left in contact with the surface before flushing out,approximately five
